Source: patent US5591758A, “Organic nitrates, processes for their preparation and their use in the treatment of cardiovascular diseases” (Laboratoires Hoechst, SA, priority 1991, dated 1997)
Structures can show the parent of a compound that is named as a salt.

Assays:
[1] = test system: thoracic aorta; experiment: Vasorelaxant effect on isolated vessels (rat thoracic aorta rings without endothelium, precontracted with noradrenalin); set-up: species or system Wistar rats; conditions: for Emax: Rattus norvegicus, maximum inhibition of noradrenalin effect, 10^-8 to 10^-4 M substance, read-out: Maximum Relaxation; for IC50: rat aorta, 10^-7 M noradrenalin contraction
Experimental: Vasorelaxant effect of the compounds according to the invention on isolated vessels.
Adult Wistar rats weighing between 250 and 350 g are anaesthetised by intraperitoneal injection of sodium pentobarbital (30 mg/kg). The thoracic aorta is rapidly removed and placed in a refrigerated and oxygenated solution of bicarbonate buffer of the Krebs-Ringer type (composition [mM]: NaCl, 118; KCl, 4.7; CaCl2, 2.5; MgSO4, 1.2; KH2 PO4, 1.2; NaHCO3, 25.0; disodium calcium salt of EDTA, 0.026; glucose 11.1). The aorta is dissected with the aim of removing the connective tissue and then cut into 6 rings (length 5-10 mm). The endothelium is removed by moderate abrasion of the intimal surface of the aortic segments with the aid of a pair of tweezers. These segments are then placed between two hooks in an isolated organ cell filled with 25 ml of bicarbonate buffer (pH 7.4), thermostat-controlled at 37° C. and oxygenated with the aid of a 95% O2 /5% CO2 mixture (pH 7.4). One of the hooks is fixed to a fixed point, while the second is connected to a transducer with the aim of measuring the variations in isometric voltage (expressed in grams). After an equilibration period of 30 min., the segments are progressively withdrawn so as to attain the level of base voltage for which the contractor response to noradrenalin (10^-7 M) is maximum (optimum voltage; average 2 g). The absence of endothelium is verified by addition of a single concentration of acetylcholine (10^-6 M), after precontraction of the vessels by noradrenalin (10^-7 M). The integrity of the vascular smooth muscle is also verified by adding a single concentration of a vasodilator whose response is independent of the presence of the endothelium, SIN-1 (10^-5 M). After this initial procedure, the aortas are washed, equilibrated for a period of 30 min and then recontracted (10^-7 M noradrenalin). The relaxant effect of the substance to be tested is then evaluated by adding increasing concentrations of this substance (from 10^-8 to 10^-4 M). The maximum inhibition of the concentration caused by noradrenalin (expressed as a percentage) is then calculated ("maximum relaxation"). When this maximum relaxation is greater than 50%, the concentration of substance tested producing a 50% inhibition of the maximum contraction (IC50) is calculated. Table V below collates the IC50 and the maximum relaxation percentages for the various compounds tested.

[2] = test system: anesthetised dogs; experiment: Haemodynamic effects on anesthetised dogs; assay type: in vivo, dogs (labrador/harrier cross)
Experimental: Haemodynamic effects of the compounds according to the invention on anesthetised pigs or dogs
The dogs, weighing between 16 and 26 kg, are the progeny of a labrador/harrier cross.
In the case of dogs the anesthesia is induced by sodium pentobarbitol (45 mg/jg i.v.) and maintained with an i.v. perfusion (flow rate of 8 mg/kg/h).
The pigs or dogs are placed under artificial respiration in ambient air. Analysis of the blood gases (pO2, pCO2) is carried out at regular intervals and oxygen can be supplied via the respirator, if necessary.
The haemodynamic parameters recorded include the left ventricular pressure (LVP; Millar PC350 Tip catheter inserted via the carotid artery), systemic blood pressure (BPs, BPd; full catheter in a femoral artery), the end pressure of the left ventricular diastole (LVEDP), the ventricular contractility (LVPdp/dtmax) and the heart rate (HR).
Following an equilibration period of the order of 45 minutes, the compounds studied are administered intraduodenally (i.d.) or intraveinously (i.v.) to several animals (1 to 4). The haemodynamic variables are recorded continuously for 1 to 3 hours, as a function of the period of action of the compound.
The effects of the compounds studied are shown as the absolute difference with respect to the base value (bv) measured before administration of the compounds and are shown in Table VII (a,b,c).
An antianginal activity is estimated by a fall in the BPs and the LVEDP (fall in venous return).

| SMILES | Emax [1] | IC50 [1] | BPs (min), period of action ([2]; dogs, 3 mg/kg i.d.) | BPs, difference to base value ([2]; dogs, 3 mg/kg i.d.) | BPs (min), period of action ([2]; dogs, 3 mg/kg i.v.) | BPs, difference to base value ([2]; dogs, 3 mg/kg i.v.) | LVEDP (min), period of action ([2]; dogs, 3 mg/kg i.v.) | LVEDP, difference to base value ([2]; dogs, 3 mg/kg i.v.) | LVEDP (min), period of action ([2]; dogs, 3 mg/kg i.d.) | LVEDP, difference to base value ([2]; dogs, 3 mg/kg i.d.) | further results |
| --- | --- | --- | --- | --- | --- | --- | --- | --- | --- | --- | --- |
| CC(C)(C)OC(=O)N1CCC[C@H]1C(=O)N[C@H]1CO[C@H]2[C@@H]1OC[C@@H]2O[N+](=O)[O-] [Compound 13, N-[(t-Butoxy)carbonyl]-L-proline amide of 5-amino-5-deoxy-2-O-nitro-1,4:3,6-dianhydro-L-iditol] | 74% | 49 µM | > 120 min | -30 mmHg | – | – | – | – | – | – | – |
| CC(C)(C)OC(=O)N[C@@H](Cc1ccccc1)C(=O)N[C@H]1CO[C@H]2[C@@H]1OC[C@@H]2O[N+](=O)[O-] [Compound 11, N-[(t-Butoxy)carbonyl]-L-phenylalanine amide of 5-amino-5-deoxy-2-O-nitro-1,4:3,6-dianhydro-L-iditol] | 100% | 25 µM | – | – | > 30 min | -10 mmHg | 0 min | 0,0 mmHg | – | – | – |
| CC(C)(C)OC(=O)N1CSC[C@H]1C(=O)N1CCC[C@H]1C(=O)N[C@H]1CO[C@H]2[C@@H]1OC[C@@H]2O[N+](=O)[O-] [Compound 69, 5-[[[(2S)-N-[(3-t-butoxycarbonyl-4-L-thiazolidinyl)carbonyl]-2-pyrrolidinyl]carbonyl]amino]-5-deoxy-2-O-nitro-1,4:3,6-dianhydro-L-iditol] | 87% | 42 µM | > 150 min | -40 mmHg | – | – | – | – | > 150 min | -2,5 mmHg | – |
| O=C(CNC(=O)[C@@H]1CCCN1)N[C@H]1CO[C@H]2[C@@H]1OC[C@@H]2O[N+](=O)[O-] [Compound 49, 5-[[2-[[((2S)-2-pyrrolidinyl)carbonyl]amino]-1-oxoethyl]amino]-5-deoxy-2-O-nitro-1,4:3,6-dianhydro-L-iditol monohydrochloride] | 100% | 38 µM | – | – | – | – | – | – | – | – | BPs (min), period of action ([2]; dogs, 1,1 mg/kg i.d.): > 240 min; BPs, difference to base value ([2]; dogs, 1,1 mg/kg i.d.): -32 mmHg |
| CC(=O)NCSC[C@H](N)C(=O)O[C@@H]1CO[C@H]2[C@@H]1OC[C@@H]2O[N+](=O)[O-] [Compound 27, S-[(Acetylamino)methyl]-L-cysteine ester of 2-O-nitro-1,4:3,6-dianhydro-D-glucitol monohydrochloride] | 14% | > 100 µM | – | – | > 90 min | -15 mmHg | > 90 min | -1,0 mmHg | – | – | – |
| CC(C)(C)OC(=O)N1CSC[C@H]1C(=O)N1CSC[C@H]1C(=O)N[C@H]1CO[C@H]2[C@@H]1OC[C@@H]2O[N+](=O)[O-] [Compound 77, 5-[[[(4R)-N-[(3-t-butoxycarbonyl-4-L-thiazolidinyl)carbonyl]-4-thiazolidinyl]carbonyl]amino]-5-deoxy-2-O-nitro-1,4:3,6-dianhydro-L-iditol] | 97% | 40 µM | > 180 min | -35 mmHg | – | – | – | – | > 180 min | -2,0 mmHg | – |
| C[C@H](NC(=O)[C@@H]1CSCN1C(=O)OC(C)(C)C)C(=O)N[C@H]1CO[C@H]2[C@@H]1OC[C@@H]2O[N+](=O)[O-] [Compound 61, 5-[[2-[[(3-t-butoxycarbonyl-4-n-thiazolidinyl)carbonyl]amino]-1-((2S)-2-methyl)-oxoethyl]amino]-5-deoxy-2-O-nitro-1,4:3,6-dianhydro-L-iditol] | 100% | 32 µM | > 180 min | -25 mmHg | – | – | – | – | > 180 min | -1,5 mmHg | – |
| C[C@H](NC(=O)[C@@H]1CSCN1)C(=O)N[C@H]1CO[C@H]2[C@@H]1OC[C@@H]2O[N+](=O)[O-] [Compound 62, 5-[[2-[[(4-L-thiazolidinyl)carbonyl]amino]-1-((2S)-2-methyl)-oxoethyl]amino]-5-deoxy-2-O-nitro-1,4:3,6-dianhydro-L-iditol monohydrochloride] | 72% | 55 µM | > 30 min | -35 mmHg | – | – | – | – | – | – | – |
| C[C@H](NC(=O)OC(C)(C)C)C(=O)N[C@H]1CO[C@H]2[C@@H]1OC[C@@H]2O[N+](=O)[O-] [Compound 7, N-[(t-Butoxy)carbonyl]-L-alanine amide of 5-amino-5-deoxy-2-O-nitro-1,4:3,6-dianhydro-L-iditol] | 96% | 17 µM | – | – | > 90 min | -20 mmHg | > 90 min | -2,0 mmHg | – | – | – |
| CSCC[C@H](NC(=O)[C@@H]1CSCN1C(=O)OC(C)(C)C)C(=O)N[C@H]1CO[C@H]2[C@@H]1OC[C@@H]2O[N+](=O)[O-] [Compound 67, 5-[[2-[[(3-t-butoxycarbonyl-4-L-thiazolidinyl)carbonyl]amino]-1-((2S)-2-(2'-thiomethyl)-ethyl)-oxoethyl]amino]-5-deoxy-2-O-nitro-1,4:3,6-dianhydro-L-iditol] | 100% | 9 µM | > 90 min | -15 mmHg | – | – | – | – | > 90 min | -1,5 mmHg | – |
| CSCC[C@H](NC(=O)[C@@H]1CSCN1)C(=O)N[C@H]1CO[C@H]2[C@@H]1OC[C@@H]2O[N+](=O)[O-] [Compound 68, 5-[[2-[[(4-n-thiazolidinyl)carbonyl]amino]-1-((2S)-2-(2'-thiomethyl)-ethyl)-oxoethyl]amino]-5-deoxy-2-O-nitro-1,4:3,6-dianhydro-L-iditol monohydrochloride] | 90% | 29 µM | – | – | – | – | – | – | – | – | BPs (min), period of action ([2]; dogs, 1 mg/kg i.d.): > 180 min; BPs, difference to base value ([2]; dogs, 1 mg/kg i.d.): -30 mmHg; LVEDP (min), period of action ([2]; dogs, 1 mg/kg i.d.): > 180 min; LVEDP, difference to base value ([2]; dogs, 1 mg/kg i.d.): -3,0 mmHg |
| O=C(CNC(=O)[C@@H]1CSCN1)N[C@H]1CO[C@H]2[C@@H]1OC[C@H]2O[N+](=O)[O-] [Compound 71, 2-[[2-[[(4-L-thiazolidinyl)carbonyl]]amino]-1-oxoethyl]amino]-2-deoxy-5-O-nitro-1,4:3,6-dianhydro-D-glucitol monohydrochloride] | 66% | 70 µM | 0 min | 0 mmHg | – | – | – | – | > 60 min | -5,5 mmHg | – |
| O=C(N[C@H]1CO[C@H]2[C@@H]1OC[C@H]2O[N+](=O)[O-])c1ccccc1SCc1ccccc1 [Compound 45] | – | – | – | – | > 120 min | -10 mmHg | 0 min | 0,0 mmHg | – | – | – |
